Source: patent publication US12226382B2, “Methods for treating microglial dysfunction” (Washington University, priority 2017, dated 2025)

Columns and labels:
[1] = system: Trem-2 deficient macrophages; test: Supplementation of Trem2-deficient macrophages with creatine analogs; assay type: cell-based, mouse; conditions: supplemented media
Trem2−/− BMDMs [2] = test: Autophagic flux in BMDM with lysosomal inhibitor (LC3 immunoblot); assay type: cell-based, mouse; conditions: bafilomycin for 5 hours prior to harvest
Procedure: (§1) To prepare bone marrow-derived macrophages, femurs and tibias were removed and flushed with PBS. Cells were counted and plated at 2.5×10^6 cells/100 mm petri dish in RPMI supplemented with Glutamax, penicillin/streptomycin, non-essential amino acids, pyruvate, and 10% heat inactivated fetal bovine serum (complete RPMI) and 10% L-cell conditioned medium (LCCM). Cells were cultured for 4-5 days before use. Microglia were prepared as previously described (Wang et al., 2015). Briefly, brains were dissociated by using a Neural Tissue Dissociation Kit (T) (Miltenyi Biotech Cat. Number 130-093-231). Cell suspensions were labeled with anti-mouse CD45 magnetic beads and isolated on LS columns (Miltenyi Biotic). Cells were plated onto poly-L-lysine coated polystyrene plates in complete RPMI supplemented with 20% LCCM and 10 ng/ml human TGF-β. Media was changed on day 3 post plating and cells were used 5-7 days post plating. ATP concentrations were determined with an ATP Determination Kit (Invitrogen).
(§2) BMDM or microglia were lysed in RIPA buffer (50 mM Tris, 150 mM NaCl, 1% SDS, and 1% Triton X100) containing PMSF, leupeptin, activated sodium orthovanidate, apoprotinin, and phosphatase inhibitor cocktail 3 (Sigma Aldrich Cat. Number P0044). Lysates were flash frozen on dry ice and stored at −80° C. until use. Lysates were thawed and 4× LDS running buffer and 10% β-mercaptoethanol were added. […]

Trem2-deficient BMDMs = test: Extracellular acidification rate (ECAR), XF96 Extracellular Flux Analyzer; assay type: cell-based, mouse; conditions: overnight 0.5% LCCM, 10 mM cyclocreatine
Procedure: as §1, with “(Invitrogen). For real-time analysis of extracellular acidification rates (ECAR) macrophages were analyzed using an XF96 Extracellular Flux Analyzer (Agilent Technologies). Cells were incubated overnight in complete RPMI in the indicated concentration of LCCM with or without cyclocreatine (10 mM). […]” for “(Invitrogen).”

Trem2−/− BMDMs [3] = test: Immunoblots for autophagy (LC3, p62) and mTOR signaling in BMDM in limiting CSF1 with rescuing agent; assay type: cell-based, mouse; conditions: Trem2-deficient BMDMs, overnight 0.5% LCCM, 5 mM cyclocreatine
Procedure: as §1, §2

Trem2−/− BMDM = test: Viability of BMDM in 0.5% LCCM; assay type: cell-based, mouse; conditions: Trem2-deficient BMDMs, 40 hours in 0.5% LCCM
Trem2−/− 5XFAD mice = test: Dietary cyclocreatine in Trem2−/− 5XFAD mice: TEM and confocal microscopy of brain; assay type: in vivo, mouse
From the text: (§3) The generation of Trem2^−/− and Trem2^−/− SXFAD mice has been described previously (Oakley et al., 2006; Turnbull et al., 2006; Wang et al., 2015). All mice were on a C57BL/6 background. Age and sex matched mice were used for all experiments; experimental cohorts of mice were cohoused from birth to control for the microbiota. For in vivo cyclocreatine treatment 10-week old mice were put on cyclocreatine-containing water, treatment was continued until mice reached 8 months of age (Santa Cruz SC-217964 S). Desired intake of cyclocreatine was approximately 0.28 mg/g of body weight/day, which is approximately the same as the standard creatine dose used in humans of 285 mg/kg of body weight/day (Kurosawa et al., 2012). Cyclocreatine was administered in drinking water at a final concentration of 2.33 mg/ml. The Institutional Animal Care and Use Committee at Washington University in St. Louis approved all protocols used in this study.
For quantitation of multivesicular/multilamellar structures, 30 cells that were cross-sectioned through the nucleus (indicating cross-section through the middle of cell) were randomly chosen, and images of each cell were taken at 6,000× and 20,000× magnification. The cross-sectional area of each of the multivesicular structures were determined using Image J 1.38 g (National Institutes of Health, USA, customized for AMT images). Data is expressed as the 1) total number of a multivesicular/multilammelar structures per cross-sectional area of cytosol and 2) the total cross-sectional area of multivesicular/multilamellar structures per area of cytosol.
Confocal microscopy analysis was performed as previously described (Wang et al., 2015). Briefly, mice were anesthetized with ketamine/xylazine and perfused with ice-cold PBS containing 1 U/ml of heparin. Brains were fixed in 4% PFA overnight at 4° C. rinsed in PBS and incubated overnight at 4° C. in 30% sucrose before freezing in a 2:1 mixture of 30% sucrose and optimal cutting temperature compound. Serial 40 μm coronal sections were cut on a cryo-sliding microtome. Floating sections from 1.1 mm Bregma to 0.8 mm Bregma for cortical imaging or slides with fixed human sections were stained with lba-1 (Waco Chemicals Cat. Number 019-19741) overnight at 4° C. followed by staining with anti-rabbit IgG DyLight 549 (Vector Laboratories Cat. Number DI-1549) and methoxy-X04 (Tocris Cat. Number 4920) for 1 hour at RT. Finally, sections were stained for with anti-LC3 Alexa 488±anti-cleaved caspase 3 (Cell Signaling Technologies Cat. Number 13082 and 9602). Images were collected using a Nikon Al Rsi+ confocal microscope. Images were then processed with Imaris 7.7 (Bitplane).
Positions of microglia and positions and volumes of plaques within z-stacks were derived from analysis in Imaris, and microglia-plaque association was determined using automated scripts in Matlab. Briefly, each plaque in the z-stack was modeled as an idealized sphere with the same volume and center of mass. Microglia density within 15 μm of the plaque surface was determined by isolating the voxels of the image that fall within 15 μm of the edge of the idealized plaque. The number of microglia contained in these voxels was divided by the total volume of those voxels to obtain density for a single plaque. Densities of all plaques in a z-stack were averaged together, and the resulting values were averaged together for all z-stacks corresponding to a single animal.
To measure total plaque area, brain sections were stained with methoxy X04. Images were collected using a Nikon Eclipse 80i microscope. For quantitative analysis, images were converted to 8-bit greyscale and stitched using the “Stitching” plugin in ImageJ. Cortex (˜1.1 mm Bregma to 0.8 mm Bregma) and hippocampus (˜−1.7 Bregma to −2.4 Bregma) were determined by manual selection. […]

5XFAD mice = test: Dietary cyclocreatine in 5XFAD mice: confocal microscopy of brain; assay type: in vivo, mouse; conditions: cyclocreatine-treated 5XFAD mice vs untreated Trem2−/− 5XFAD mice
From the text: as §3
Confocal microscopy analysis was performed as previously described (Wang et al., 2015). Briefly, mice were anesthetized with ketamine/xylazine and perfused with ice-cold PBS containing 1 U/ml of heparin. Brains were fixed in 4% PFA overnight at 4° C. rinsed in PBS and incubated overnight at 4° C. in 30% sucrose before freezing in a 2:1 mixture of 30% sucrose and optimal cutting temperature compound. […]

[4] = system: microglia from Trem2−/− 5XFAD mice; test: Immunoblots of microglia sorted ex vivo from cyclocreatine-treated mice; assay type: in vivo, mouse; conditions: microglia isolated ex vivo, cyclocreatine vs untreated
From the text: as §3
Microglia were isolated from the indicated animals as previously described (Wang et al., 2015). CD45^+, CD11 b^+, F4/80^+ (Biolegend Cat. Number 103134, eBioscience Cat. Numbers 11-0112 and 17-4801) cells in the brain were fluorescence-activated cell-sorted (FACS) directly into RLT-plus lysis buffer for microarray or 2% FBS in PBS for TEM or immunoblot lysates. For microarray RNA extraction was performed using a RNeasy micro kit (QIAGEN). […]

creatine kinase = conditions: in vitro and in vivo; cited from earlier work
[5] = cited from earlier work
[6] = compared with phosphocreatine; cited from earlier work
Trem2−/− BMDMs [7] = test: ER stress in BMDM (LC3 and phospho-Akt immunoblots); assay type: cell-based, mouse; conditions: Trem2−/− BMDMs compared with WT BMDMs, 10% LCCM
Procedure: as §1, §2

[8] = Trem2−/− 5XFAD mice, cyclocreatine in drinking water from 10 weeks to 8 months
[9] = Trem2−/− 5XFAD mice, cyclocreatine vs untreated
[10] = cyclocreatine treated Trem2−/− 5XFAD mice

## NC(=O)c1ccc[n+]([C@@H]2O[C@H](COP(=O)([O-])O)[C@@H](O)[C@H]2O)c1 [NMN, nicotinamide mononucleotide]
[1]
  autophagy: prevent
  cell death: prevent
  metabolic activity / metabolic capacity: rescue

## CO/C1=C\C(C)=C\[C@@H](C)[C@@H](O)[C@@H](C)C/C(C)=C/C=C/[C@H](OC)[C@@H]([C@@H](C)[C@@H](O)[C@H](C)[C@@]2(O)C[C@@H](O)[C@H](C)[C@@H](C(C)C)O2)OC1=O [bafilomycin, Bafilomycin A1]
Trem2−/− BMDMs [2]
  LC3II: greatly increased

## NC1=NCCN1CC(=O)O [cyclocreatine, 1-carboxymethyl-2-iminoimidazolidine]
Trem2-deficient BMDMs
  ECAR: improved
Trem2−/− BMDMs [3]
  autophagy (LC3 immunoblot): less autophagy
  mTOR signaling: increased mTOR signaling
Trem2−/− BMDM
  viability: increased
[1]
  autophagy: prevent
  cell death: prevent
  metabolic activity / metabolic capacity: rescue
Trem2−/− 5XFAD mice; 8 months of age
  engulfment of plaque particulates by microglia: did not moderate
Trem2−/− 5XFAD mice; [8]
  number of LC3 puncta/cell: significantly decreased
  percentage of LC3+ microglia: significantly decreased
  percentage of cleaved caspase-3+ microglia: significantly decreased
Trem2−/− 5XFAD mice; Trem2−/− 5XFAD mice, cyclocreatine in drinking water from 10 weeks to 8 months, vs untreated
  multivesicular/multilamellar structures in microglia (TEM): significantly fewer
Trem2−/− 5XFAD mice; [9]
  clustering of microglia around plaques: significantly increased
  number of microglia/high powered field (HPF) in plaque-bearing regions of the cortex: significantly increased
  plaque-associated neurite dystrophy: significantly reduced
Trem2−/− 5XFAD mice; cortex and hippocampus, 8 months of age
  plaque accumulation: did not moderate
Trem2−/− 5XFAD mice; [10]
  density of plaques (methoxy-X04 staining intensity): resembled that of plaques in 5XFAD mice
  plaque shape complexity: not significantly altered
Trem2−/− 5XFAD mice; cyclocreatine-treated Trem2−/− 5XFAD mice vs untreated Trem2−/− 5XFAD mice
  Spp1+ microglia: significantly more
5XFAD mice
  Spp1+ microglia: significantly more
[4]
  autophagy (LC3II/LC3I ratio): significantly limited
  microglial mTOR signaling: restored
Creatine kinase
  phosphorylation by creatine kinase in the forward reaction: phosphorylated efficiently
[5]; mouse brain in vivo
  accumulation in the brain: can accumulate and function as a phosphagen in the mouse brain
[5]; mouse, in vivo
  transport across membranes: passively transported across membranes

## phosphocreatine
[1]
  autophagy: prevent
  cell death: prevent
  metabolic activity / metabolic capacity: rescue

## phosphocyclocreatine [cyclocreatine phosphate]
[6]
  stability of the phosphorous-nitrogen (P N) bond: more stable than that of phosphocreatine

## tunicamycin
Trem2−/− BMDMs [7]
  Akt S473 phosphorylation: less
  LC3II/LC3I ratios: greater
